According to US6482850B2, “Hydrolysis-promoting hydrophobic taxane derivatives” (priority 1995, dated 2002):

Tests used:
[1] = tested on: CDF1 mice; test: In vivo toxicity, i.p. x 5, non-tumor bearing mice; details: 30 days observation
Method: (§1) A separate group (n=5) was injected with concentrations of Cremophor® EL and ethanol (in PBS) equivalent to the highest concentration of the test treatment. Mortality was recorded daily and body weights taken at least twice weekly for an observation period of 30 days.

[2] = In vivo toxicity, i.p. x 5, non-tumor bearing mice; details: CDF1, mouse, in vivo, ip; i.p. once daily for five consecutive days; read-out: maximum tolerated i.p. dose (MTD, highest dose with no deaths)
Method: as §1

[3] = tested on: CDF1 female mice; test: Acute toxicity of liposomal paclitaxel or paclitaxel derivative given intraperitoneally; details: liposomes, i.p.
Method: Moreover, liposomes containing either paclitaxel or a 2′-(2-bromo) hydrophobic paclitaxel derivative (containing either a six-carbon (C-6), C-8, C-12, C-14 or C-16 acyl chain at the 2′ position) were administered, intraperitoneally in 5 doses, to SCID (severe combined inimunodeficiency) mice bearing a human ovarian cancer (OvCar 3), at a dose of 12.5 mg paclitaxel per kg or a dose of 50 mg paclitaxel derivative per kg.
CDF1 female mice, 5 or 10 mice per group, were intraperitoneally administered either paclitaxel-, 2′-C6-paclitaxel derivative-, or 2′-C16-paclitaxel derivative-containing liposomes, in a single dose, or 5 doses, of either 12.5, 25, 50, 100, 200, 300. 400 or 500 mg of paclitaxel or paclitaxel derivative per kg of mouse body weight.

[4] = Pharmacokinetic, plasma levels after i.v. administration; details: 25 mg/kg i.v., CDF1 female mice, 8 hours
Method: (§2) Control mice received an equivalent concentration of Cremophor® EL and ethanol (in PBS) only. At 1, 4, 8, 24 or 48 hr after injection mice were sacrificed and blood was collected via heart puncture into 1 cc syringes containing 0.05 mL of a 0.129M Sodium citrate solution (Baxter, N.J.). Samples were centrifuged at 10,000 ×g for 3 min and plasma removed. Extraction of test materials from plasma was done by adding an equal volume of acetonitrile containing 2C12-HT, 50 μg/ml, as an internal standard, and vortexing vigorously for 30 sec. Samples were then centrifuged for 3 min at 10,000 ×g and supernatant and drug levels determined via HPLC as described previously.

[5] = tested on: CDF1 mice; test: In vivo toxicity, i.v. x 5, non-tumor bearing mice; details: 30 days observation
Method: as §1

[6] = tested on: HT-29 human colon carcinoma cells; test: In vitro sensitivity, sulforhodamine B cytotoxicity assay, HT-29 (Table 2); assay type: cell-based; details: Homo sapiens, HT-29; 72-hour incubation; averaged from two separate experiments
[7] = tested on: A549 cancer cells; test: cells; details: Homo sapiens, A549, 72 h, read-out: GI50 ± S.D. A549
Method: Briefly, 96-well microtiter plates were inoculated (100 μL/well) with 5×10^3 (A549) or 7.5×10^3 (OVCAR-3) cells/well, in RPMI-1640 supplemented with 10% FBS (growth media). The plates were incubated for 24 hr at 37° C., 100% humidity and 5% CO2. At 24 hours, growth media (100 μL) was added to designated “time zero” plates. Similarly, serial dilutions of drug or vehicle (in media) were added (100 μL aliquots) to the test and vehicle control wells at twice the predetermined highest concentration. There were triplicate wells on each plate and duplicate plates (total 6 wells) for each drug concentration. The test plates were incubated as above for 72 hr. Cells (including time zero plates) were then fixed with 50 μL of 50% trichloroacetic acid (TCA) (w:v) for adherent cells or 80% TCA for suspended cells, and plates refrigerated at 4° C. for 1 hr. The supernatant was discarded (suspended cell plates were first centrifuged) and the wells rinsed six times with tap water and air-dried. One hundred microliters of 0.4% SRB in 1% acetic acid were added to each well and the plates were incubated under ambient (RT) conditions for 10 min. Unbound stain was removed by rinsing the wells three times with 1% acetic acid. The plates were then air-dried for 24 hr. The bound stain was solubilized with 100 μL of 10 mM Tris buffer and the optical density was read spectrophotometrically at 490 nm (Microplate Reader Model 3550-UV, Bio-Rad, Hercules, Calif.). Percent growth was calculated as follows: (T-T0) / (C-T0)×100; where (T)=mean optical density of treated wells at a given drug concentration, (T0)=mean optical density of time zero wells, and (C)=mean optical density of control wells.

[8] = tested on: OVCAR-3 human ovarian cancer; test: i.p. OVCAR-3 tumor, i.v. treatment, survival (FIG. 6); assay type: in vivo, mice
Method: Mice were observed daily for mortality and % ILS was calculated as described above.

[9] = tested on: OVCAR-3 human ovarian cancer; test: i.p. OVCAR-3 tumor, i.p. treatment, survival
Method: C.B-17 SCID female mice were injected i.p. with 5×10^6 OVCAR-3 human ovarian cancer cells (day 0). […] Note that long-term survivors (mice that survived through day 300 after cell inoculation) were not included in mean, median, or % ILS calculations.

[10] = tested on: OVCAR-3 human ovarian cancer; test: s.c. OVCAR-3 tumor, i.v. treatment, tumor volume (FIG. 7); assay type: in vivo, mice
Method: OVCAR-3 human ovarian cancer.
The tumor volume (mm^3) from tumor measurement was calculated: (Length * (Width/2)^2 * π). Mice were sacrificed when the average tumor volume of the group reached 1500 mm^3.

[11] = tested on: A549 human NSCLC; test: i.p. A549 tumor, i.p. treatment, survival; details: i.p. on days 1, 3, 5, 7 & 9
Method: Note that long-term survivors (mice that survived through day 300 after cell inoculation) were not included in mean, median, or % ILS calculations.
SCID mice (6/group) were injected with 5×10^6 A549 human NSCLC cells i.p. (day 0).

[12] = tested on: A-549 human lung carcinoma; test: In vitro sensitivity, sulforhodamine B cytotoxicity assay, A-549 (Table 2); assay type: cell-based; details: Homo sapiens, A549; 72-hour incubation; averaged from two separate experiments
Method: Briefly, 96-well microtiter plates were inoculated (100 μL/well) with 5×10^3 (A549) or 7.5×10^3 (OVCAR-3) cells/well, in RPMI-1640 supplemented with 10% FBS (growth media). The plates were incubated for 24 hr at 37° C., 100% humidity and 5% CO2. At 24 hours, growth media (100 μL) was added to designated “time zero” plates. Similarly, serial dilutions of drug or vehicle (in media) were added (100 μL aliquots) to the test and vehicle control wells at twice the predetermined highest concentration. […] Cells (including time zero plates) were then fixed with 50 μL of 50% trichloroacetic acid (TCA) (w:v) for adherent cells or 80% TCA for suspended cells, and plates refrigerated at 4° C. for 1 hr. […] The plates were then air-dried for 24 hr.

[13] = High sensitivity differential scanning calorimetry on phosphocholine bilayers; assay type: physicochemical; details: DMPC, DPPC and DSPC bilayers, as high as 9.1 mol % (Lipid/Drug, 10:1)
Text: High sensitivity differential scanning calorimetry (DSC) was used to examine the effect of addition of taxol and its acylated derivatives on the thermotropic phase properties of phosphocholine bilayers of saturated 1, 2-dimyristoyl-sn-glycero-3-phosphocholines (DMPC), 1,2-dipalmitoyl-sn-glycero-3-phosphocholines (DPPC), and 1,2-distearoyl-sn-glycero-3-phosphocholines (DSPC). Likewise, three acylated taxol prodrugs were varied in chain lengths from six, twelve, to sixteen carbons.

[14] = tested on: MCF-7 human breast carcinoma; test: In vitro sensitivity, sulforhodamine B cytotoxicity assay, MCF-7 (Table 2); assay type: cell-based; details: Homo sapiens, MCF7; 72-hour incubation; averaged from two separate experiments
[15] = in vivo; details: female, CDF1, mouse, plasma, intravenous, 25 mg/kg
Method: as §2

[16] = tested on: A549 human lung cancer; test: s.c. A549 tumor, i.v. treatment, tumor volume (FIG. 8); assay type: in vivo, mice; details: i.v., independent of the dose schedule; BrC16HT 12.5-25 mg/kg, Taxol® 25 mg/kg
Text: Mice were sacrificed when the average tumor volume of the group reached 1500 mm^3.

[17] = tested on: MCF-7/ADR (adriamycin-resistant); test: In vitro sensitivity, sulforhodamine B cytotoxicity assay, MCF-7/ADR (Table 2); assay type: cell-based, human; details: Homo sapiens, NCI/ADR-RES; 72-hour incubation; averaged from two separate experiments
[18] = tested on: OVCAR-3 cancer cells; test: cells; details: Homo sapiens, OVCAR-3, 72 h, read-out: GI50 ± S.D. OVCAR-3
Method: Briefly, 96-well microtiter plates were inoculated (100 μL/well) with 5×10^3 (A549) or 7.5×10^3 (OVCAR-3) cells/well, in RPMI-1640 supplemented with 10% FBS (growth media). The plates were incubated for 24 hr at 37° C., 100% humidity and 5% CO2. At 24 hours, growth media (100 μL) was added to designated “time zero” plates. Similarly, serial dilutions of drug or vehicle (in media) were added (100 μL aliquots) to the test and vehicle control wells at twice the predetermined highest concentration. There were triplicate wells on each plate and duplicate plates (total 6 wells) for each drug concentration. The test plates were incubated as above for 72 hr. Cells (including time zero plates) were then fixed with 50 μL of 50% trichloroacetic acid (TCA) (w:v) for adherent cells or 80% TCA for suspended cells, and plates refrigerated at 4° C. for 1 hr. […] The bound stain was solubilized with 100 μL of 10 mM Tris buffer and the optical density was read spectrophotometrically at 490 nm (Microplate Reader Model 3550-UV, Bio-Rad, Hercules, Calif.). Percent growth was calculated as follows: (T-T0) / (C-T0)×100; where (T)=mean optical density of treated wells at a given drug concentration, (T0)=mean optical density of time zero wells, and (C)=mean optical density of control wells.

[19] = treated days 20, 22, 24, 26 and 28 i.p., 25 mg/kg
[20] = treated days 20, 22, 24, 26 and 28 i.p., 25 mg/kg, long-term survivors not included

For CC(=O)O[C@H]1C(=O)[C@@]2(C)[C@H]([C@H](OC(=O)c3ccccc3)[C@]3(O)C[C@H](OC(=O)[C@H](O)[C@@H](NC(=O)c4ccccc4)c4ccccc4)C(C)=C1C3(C)C)[C@]1(OC(C)=O)CO[C@@H]1C[C@@H]2O [Paclitaxel, reference compound], the “Number of Mice surviving/Total” value ([1]; i.p. days 1 through 5, 12.5 mg/kg) was 20/20, the “Number of Mice surviving/Total” value ([1]; i.p. days 1 through 5, 25 mg/kg) was 10/20 and the “Number of Mice surviving/Total” value ([1]; i.p. days 1 through 5, 37.5 mg/kg) was 0/10. For the same compound, the “Number of Mice surviving/Total” value ([1]; i.p. days 1 through 5, 50 mg/kg) was 0/25, the MTD at 5 days [2] was 12.5 to 25 mg/kg and the “number of mice that died within the first 14 days post-injection/total” value ([3]; five doses of 12.5 mg/kg) was 0/10. For the same compound, the “number of mice that died within the first 14 days post-injection/total” value ([3]; five doses of 25 mg/kg) was 10/10, the “number of mice that died within the first 14 days post-injection/total” value ([3]; five doses of 50 mg/kg) was 10/10 and the “number of mice that died within the first 14 days post-injection/total” value ([3]; single dose 12.5 mg/kg) was 0/10. The “number of mice that died within the first 14 days post-injection/total” value ([3]; single dose 25 mg/kg) was 0/10, the “number of mice that died within the first 14 days post-injection/total” value ([3]; single dose 50 mg/kg) was 0/10 and the “number of mice that died within the first 14 days post-injection/total” value ([3]; single dose 100 mg/kg, 100 mg/kg) was 5/5. For the same compound, the “number of mice that died within the first 14 days post-injection/total” value ([3]; single dose 100 mg/kg, listed as paclitaxel, 100 mg/kg) was “all five of the mice”, the “Plasma level of paclitaxel ± SEM” value [4] was “none detectable” and the “Number of Mice surviving/Total” value ([5]; i.v. days 1 through 5, 12.5 mg/kg) was 10/10. For the same compound, the “Number of Mice surviving/Total” value ([5]; i.v. days 1 through 5, 25 mg/kg) was 8/10, the “Number of Mice surviving/Total” value ([5]; i.v. days 1 through 5, 37.5 mg/kg) was 0/7 and the “Number of Mice surviving/Total” value ([5]; i.v. days 1 through 5, 50 mg/kg) was 0/8. For the same compound, the GI50 [6] was < 1.4 nM, the GI50 [7] was 3.3 ± 0.8 nM and the medium survival times ([8]; 12.5 mg/kg i.v. on days 20, 22, 24, 26 & 28) was 170 days. The “survival time vs. control” value ([8]; 12.5 or 25 mg/kg i.v. on days 1, 3, 5, 7, 9, 42, 44, 46, 48 & 50 (FIG. 6a)) was “significantly (p<0.05 vs. control) increased the survival time”, the “survival time vs. control” value ([8]; i.v. on days 20, 22, 24, 26 & 28, BrC16HT 12.5 or 25 mg/kg, Taxol® 12.5 mg/kg (FIG. 6b)) was “significantly (p<0.05 vs. control) increased the survival time” and the “long-term survivors (LTS), in words” value ([9]; delayed i.p. schedule (Table 9b)) was “no long-term survivors were observed”. The “survival of tumor-bearing mice vs. control” value ([9]; early (days 1, 3, 5, 7 & 9) and delayed (days 20, 22, 24, 26 & 28) i.p. treatment schedules) was “significantly prolonged (p<0.05 vs. control) the survival”, the “% ILS” value [9, 19] was 84% and the “LTS/n (mice that survived to 300 days)” value [9, 19] was 0/10. The “MST Days ± SEM (n)” value [9, 20] was 188 ± 15 (10) Days, the Median survival time [9, 20] was 185 days and the delaying tumor growth ([10]; 25 mg/kg i.v. on days 1, 3, 5, 7 & 9) was ~59 days. For the same compound, the “tumor growth vs. control” value ([10]; i.v. on days 1, 3, 5, 7 & 9, BrC16HT 12.5-25 mg/kg, Taxol® 25 mg/kg) was “significantly (p<0.05 vs. control) inhibited the tumor growth”, the “survival time of tumor-bearing mice vs. control” value [11] was “significantly (p<0.05 vs. control) increased the survival time” and the GI50 [12] was 2.3 nM. The “perturbation of PC bilayers (DSC)” value [13] was “little or no effect on the perturbation of all three PC bilayers”, the GI50 [14] was < 1.5 nM and the concentration at 1 h [15] was 14400 ± 4600 ng/mL. For the same compound, the concentration at 4 h [15] was < 5000 ng/mL, the “tumor growth vs. control” value [16] was “significantly (p <0.05 vs. control) inhibited the tumor growth” and the GI50 [17] was 4170 nM. For the same compound, the GI50 [18] was 1.9 ± 0.03 nM.
